ChEMBL document CHEMBL3352226, “Synthesis of novel derivatives of 4-methylbenzimidazole and evaluation of their biological activities” (Eur J Med Chem, 2014)

Experiments:
[1] = Toxicity against human THP1 cells assessed as reduction in cell viability after 48 hrs by trypan blue dye exclusion method; format: cell-based; conditions: thp-1, 48 h
[2] = Antiglycation activity using BSA assessed as inhibition of AGE formation incubated at 37 degC for 9 days by fluorescence assay; format: physicochemical
[3] = Antioxidant activity assessed as DPPH free radical scavenging activity incubated at 37 degC for 30 mins by microtiter plate reader based method; format: physicochemical
[4] = Antioxidant activity assessed as superoxide anion radical scavenging activity by nitroblue tetrazolium method; format: physicochemical
[5] = tested on: Leishmania major; assay: Antileishmanial activity against Leishmania major JISH118 promastigotes infected in human THP1 cells by Giemsa staining method; format: functional, organism-based, THP-1
[6] = Antiglycation activity using BSA assessed as inhibition of AGE formation incubated at 37 degC for 9 days by fluorescence assay relative to untreated control; format: physicochemical; conditions: cattle, 216 h; further: test concentration or dose not given here
[7] = Leishmania major, JISH118, THP-1, read-out: IC50

| IC50 ([2]; read-out: IC50) [µM] | IC50 [3] [µM] | IC50 [4] [µM] | IC50 ([5]; thp-1) | IC50 [2] | inhibition (INH) [6] [%] | IC50 [5, 7] [µM] | Compound | Activity [1] |
| --- | --- | --- | --- | --- | --- | --- | --- | --- |
| 190 | 14.2 | 81 | Not Active |  |  |  | Cc1cccc2nc(-c3ccc(C(=O)N/N=C/c4ccc(O)c(O)c4)cc3)[nH]c12 | Non-toxic |
| 150 | 29 | 101 | Not Active |  |  |  | Cc1cccc2nc(-c3ccc(C(=O)N/N=C/c4ccc(O)cc4)cc3)[nH]c12 | Non-toxic |
| 450 | 138 | 312 | Not Active |  |  |  | Cc1cccc2nc(-c3ccc(C(=O)N/N=C/c4ccc([N+](=O)[O-])cc4)cc3)[nH]c12 | Non-toxic |
|  | 105 | 310 | Not Active | Not Active | < 50 |  | Cc1cccc2nc(-c3ccc(C(=O)N/N=C/c4cccnc4)cc3)[nH]c12 | Non-toxic |
| 405 | 40.1 | 210 | Not Active |  |  |  | COc1ccc(/C=N/NC(=O)c2ccc(-c3nc4cccc(C)c4[nH]3)cc2)c(I)c1O | Non-toxic |
|  | 145 | 345 | Not Active | Not Active | < 50 |  | COc1cccc(/C=N/NC(=O)c2ccc(-c3nc4cccc(C)c4[nH]3)cc2)c1 | Non-toxic |
|  | 110 | 320 | Not Active | Not Active | < 50 |  | Cc1cccc2nc(-c3ccc(C(=O)N/N=C/c4cccs4)cc3)[nH]c12 | Non-toxic |
| 350 | 25.2 | 190 | Not Active |  |  |  | Cc1cccc2nc(-c3ccc(C(=O)N/N=C/c4ccc(O)c(Br)c4)cc3)[nH]c12 | Non-toxic |
| 501 | 160 | 322 | Not Active |  |  |  | COC(=O)c1ccc(/C=N/NC(=O)c2ccc(-c3nc4cccc(C)c4[nH]3)cc2)cc1 | Non-toxic |
|  | 140 | 340 | Not Active | Not Active | < 50 |  | COc1ccc(/C=N/NC(=O)c2ccc(-c3nc4cccc(C)c4[nH]3)cc2)cc1 | Non-toxic |
|  | 30.3 | 106 |  |  |  |  | CCCOC(=O)c1cc(O)c(O)c(O)c1 [PROPYL GALLATE] |  |
|  | 120 | 330 | Not Active | Not Active | < 50 |  | COc1ccc(/C=N/NC(=O)c2ccc(-c3nc4cccc(C)c4[nH]3)cc2)cc1OC | Non-toxic |
|  | 94.3 | 350 | Not Active | Not Active | < 50 |  | Cc1cccc2nc(-c3ccc(C(=O)N/N=C/c4ccccn4)cc3)[nH]c12 | Non-toxic |
| 140 | 27.4 | 92.1 | Not Active |  |  |  | Cc1cccc2nc(-c3ccc(C(=O)N/N=C/c4ccc(O)cc4O)cc3)[nH]c12 | Non-toxic |
|  | 150 | 345 | Not Active | Not Active | < 50 |  | Cc1cccc(/C=N/NC(=O)c2ccc(-c3nc4cccc(C)c4[nH]3)cc2)c1 | Non-toxic |
|  | 88.4 | 340 | Not Active | Not Active | < 50 |  | Cc1cccc2nc(-c3ccc(C(=O)N/N=C/c4ccncc4)cc3)[nH]c12 | Non-toxic |

| IC50 ([2]; read-out: IC50) [µM] | IC50 [3] [µM] | IC50 [4] [µM] | IC50 ([5]; thp-1) | IC50 [2] | inhibition (INH) [6] [%] | IC50 [5, 7] [µM] | Compound | Activity [1] |
| --- | --- | --- | --- | --- | --- | --- | --- | --- |
| 280 | 60.2 | 212 | Not Active |  |  |  | Cc1cccc2nc(-c3ccc(C(=O)N/N=C/c4cccc(O)c4)cc3)[nH]c12 | Non-toxic |
| 294 |  |  |  |  |  |  | C[C@@H]1O[C@@H](OC[C@H]2O[C@@H](Oc3c(-c4ccc(O)c(O)c4)oc4cc(O)cc(O)c4c3=O)[C@H](O)[C@@H](O)[C@@H]2O)[C@H](O)[C@H](O)[C@H]1O [RUTIN] |  |
|  | 158 | 340 | Not Active | Not Active | < 50 |  | Cc1ccccc1/C=N/NC(=O)c1ccc(-c2nc3cccc(C)c3[nH]2)cc1 | Non-toxic |
| 360 | 49.1 | 222 | Not Active |  |  |  | COc1ccc(/C=N/NC(=O)c2ccc(-c3nc4cccc(C)c4[nH]3)cc2)cc1O | Non-toxic |
| 195 | 17.3 | 90 | Not Active |  |  |  | Cc1cccc2nc(-c3ccc(C(=O)N/N=C/c4cc(O)cc(O)c4)cc3)[nH]c12 | Non-toxic |
|  |  |  |  |  |  | 7.02 | N=C(N)c1ccc(OCCCCCOc2ccc(C(=N)N)cc2)cc1 [PENTAMIDINE] |  |
| 271 | 26.2 | 104 | Not Active |  |  |  | COc1cc(/C=N/NC(=O)c2ccc(-c3nc4cccc(C)c4[nH]3)cc2)ccc1O | Non-toxic |
| 206 | 18.5 | 86.1 | Not Active |  |  |  | Cc1cccc2nc(-c3ccc(C(=O)N/N=C/c4cc(O)ccc4O)cc3)[nH]c12 | Non-toxic |
|  | 120 | 360 | Not Active | Not Active | < 50 |  | Cc1cccc2nc(-c3ccc(C(=O)N/N=C/c4ccc(Cl)cc4)cc3)[nH]c12 | Non-toxic |
|  | 90.2 | 320 | Not Active | Not Active | < 50 |  | Cc1cccc2nc(-c3ccc(C(=O)N/N=C/c4ccc(F)cc4)cc3)[nH]c12 | Non-toxic |
| 380 | 54.1 | 209 | Not Active |  |  |  | Cc1cccc2nc(-c3ccc(C(=O)N/N=C/c4ccccc4O)cc3)[nH]c12 | Non-toxic |
| 400 | 74.2 | 215 | Not Active |  |  |  | COc1ccc(O)c(/C=N/NC(=O)c2ccc(-c3nc4cccc(C)c4[nH]3)cc2)c1 | Non-toxic |
|  | 180 | 310 | Not Active | Not Active | < 50 |  | Cc1cccc2nc(-c3ccc(C(=O)N/N=C/c4ccco4)cc3)[nH]c12 | Non-toxic |
| 220 | 12.1 | 82 |  |  |  | 37.8 | Cc1cccc2nc(-c3ccc(C(=O)N/N=C/c4cccc(O)c4O)cc3)[nH]c12 | Non-toxic |
| 340 | 47.5 | 202 | Not Active |  |  |  | COc1ccc(/C=N/NC(=O)c2ccc(-c3nc4cccc(C)c4[nH]3)cc2)c(O)c1 | Non-toxic |
